Test results from the NIST ThermoML archive (doi:10.1016/j.tca.2011.01.001).

Columns and labels:
[1] = Molar enthalpy of transition or fusion; details: Crystal; DSC

O=C(O)c1c(O)cccc1O [2,6-dihydroxybenzoic acid]
Details | vapor or sublimation pressure [kPa]
346 K, Crystal, Torsion effusion method | 9.9e-05
347 K, Crystal, Torsion effusion method | 0.000113
351.5 K, Crystal, Torsion effusion method | 0.00017
353.3 K, Crystal, Torsion effusion method | 0.000216
354 K, Crystal, Torsion effusion method | 0.000223
355 K, Crystal, Torsion effusion method | 0.000248
357 K, Crystal, Torsion effusion method | 0.000307
358 K, Crystal, Torsion effusion method | 0.000341
360.5 K, Crystal, Torsion effusion method | 0.000443
361 K, Crystal, Torsion effusion method | 0.000467
361.5 K, Crystal, Torsion effusion method | 0.000492
363 K, Crystal, Torsion effusion method | 0.000574
363.5 K, Crystal, Torsion effusion method | 0.000604
365 K, Crystal, Torsion effusion method | 0.000704
366 K, Crystal, Torsion effusion method | 0.000779
367 K, Crystal, Torsion effusion method | 0.000851
367.5 K, Crystal, Torsion effusion method | 0.0009
369 K, Crystal, Torsion effusion method | 0.001031
454.2 K, Liquid, Non-isothermal TG | 0.643
454.7 K, Liquid, Non-isothermal TG | 0.681
455.7 K, Liquid, Non-isothermal TG | 0.722
456.7 K, Liquid, Non-isothermal TG | 0.754
457.7 K, Liquid, Non-isothermal TG | 0.804
458.7 K, Liquid, Isothermal TG | 0.809
458.7 K, Liquid, Non-isothermal TG | 0.853
459.1 K, Liquid, Isothermal TG | 0.829
459.2 K, Liquid, Isothermal TG | 0.848
459.7 K, Liquid, Non-isothermal TG | 0.904
459.8 K, Liquid, Isothermal TG | 0.868
460.2 K, Liquid, Isothermal TG | 0.887
460.6 K, Liquid, Isothermal TG | 0.907
460.7 K, Liquid, Isothermal TG | 0.928
460.8 K, Liquid, Non-isothermal TG | 0.954
461 K, Liquid, Isothermal TG | 0.928
461.5 K, Liquid, Isothermal TG | 0.948
461.8 K, Liquid, Non-isothermal TG | 1.006
461.9 K, Liquid, Isothermal TG | 0.968
462 K, Liquid, Isothermal TG | 0.979
462.7 K, Liquid, Isothermal TG | 1
462.7 K, Liquid, Non-isothermal TG | 1.056
463.1 K, Liquid, Isothermal TG | 1.027
463.5 K, Liquid, Isothermal TG | 1.048
463.6 K, Liquid, Isothermal TG | 1.055
463.8 K, Liquid, Non-isothermal TG | 1.077
464.3 K, Liquid, Isothermal TG | 1.087
464.7 K, Liquid, Isothermal TG | 1.108
464.8 K, Liquid, Non-isothermal TG | 1.121
465.1 K, Liquid, Isothermal TG | 1.113
465.2 K, Liquid, Isothermal TG | 1.14
465.8 K, Liquid, Non-isothermal TG | 1.175
465.9 K, Liquid, Isothermal TG | 1.167
466.3 K, Liquid, Isothermal TG | 1.187
466.7 K, Liquid, Isothermal TG | 1.208
466.8 K, Liquid, Isothermal TG | 1.227
466.8 K, Liquid, Non-isothermal TG | 1.22
467.5 K, Liquid, Isothermal TG | 1.248
467.8 K, Liquid, Non-isothermal TG | 1.313
467.9 K, Liquid, Isothermal TG | 1.267
468.3 K, Liquid, Isothermal TG | 1.288
468.4 K, Liquid, Isothermal TG | 1.307
468.8 K, Liquid, Non-isothermal TG | 1.364
469.1 K, Liquid, Isothermal TG | 1.328
469.5 K, Liquid, Isothermal TG | 1.348
469.8 K, Liquid, Non-isothermal TG | 1.412
470 K, Liquid, Isothermal TG | 1.381
470.1 K, Liquid, Isothermal TG | 1.389
470.8 K, Liquid, Isothermal TG | 1.434
470.8 K, Liquid, Non-isothermal TG | 1.464
471.2 K, Liquid, Isothermal TG | 1.442
471.6 K, Liquid, Isothermal TG | 1.472
471.7 K, Liquid, Isothermal TG | 1.509
471.7 K, Liquid, Non-isothermal TG | 1.51
472.5 K, Liquid, Isothermal TG | 1.546
472.7 K, Liquid, Non-isothermal TG | 1.557
473.7 K, Liquid, Non-isothermal TG | 1.644
474.8 K, Liquid, Non-isothermal TG | 1.761
475.7 K, Liquid, Non-isothermal TG | 1.829
476.7 K, Liquid, Non-isothermal TG | 1.847

Details | Normal melting temperature [°C]
Crystal, DTA | 170.6

Details | Molar enthalpy of transition or fusion [kcal/mol]
[1] | 5.98
